The record followed here is patent publication US20220273660A1, “MEK INHIBITOR FOR TREATMENT OF STROKE” (EDVINCE AB, priority 2019, published 2022).

The structures appear in SMILES notation. “Also recorded” adds a separate entry of the source.

The test system of one experiment is rat basilar arteries. The experiment can be described thus: 48 h organ culture of basilar artery, endothelium function / vasodilation (carbachol, SNP, CGRP). Type of experiment: cell-based. As to conditions: 1 μM inhibitor. The procedure: Rats were sedated with O2/CO2 (30/70%) and sacrificed by decapitation. […] The basilar artery (BA) was carefully dissected from the brain in a physiological buffer solution followed by either OC (naïve animals) or directly mounted in a wire myograph (arteries from rats which has undergone surgical procedures). Segments were incubated for 48 hours at 37° C. in humidified 5% CO2/O2 in DMEM supplemented with streptomycin and penicillin with inhibitors or vehicle (DMSO). Culture media was changed after 24 hours.
(§1) For contractility measurements, both incubated BAs (ex vivo) and BAs after surgical procedure (in vivo) were cut into segments and mounted on a pair of metal wires (40 μm) in a myograph bath. The arteries from OC were mounted the same way after 48 hours in media. One wire was attached to a micro-meter screw which allows for fine adjustments of the distance between the wires, controlling the vascular tone.
(§2) The arterial segments were exposed two or three times with 60 mM K^+, by exchanging the buffer with a 60 mM K^+ buffer solution. To maintain equal osmolarity, a proportional amount of Na^+ had been removed from the buffer. An absolute cut-off was set at 2.0 mN K^+max for inclusion of arterial segments from rats that underwent the surgical procedure. Endothelium function was evaluated with the addition of 5-HT (3.10^−7 M) followed by carbachol (10^−5 M). For arteries from the OC the protocol was as followed: first a cumulative concentration-response curve to sarafotoxin 6C (S6c, 10^−14-10^−7 M), followed by a concentration-response curve to endothelin-1 (ET-1, 10^−14-10^−7 M). At peak ET-1 (10^−7 M), the buffer was changed to a Ca^2+-free buffer containing 10^−7 M ET-1 and nimodipine (L-type of voltage dependent Ca^2+ channel entry blocker, 10^−7 M). […] When vasodilation was investigated arteries was precontracted with U46619 (1.10^−7-3.10^−7 M) or K^+ (41 mM) and cumulative concentration-response curves was performed by adding calcitonin gene-related peptide (CGRP, 10^−12-10^−7 M), carbachol (10^−10-10^−5 M) or SNP (10^−11-10^−4 M).

Experiment [1] has as its system rat subarachnoid haemorrhage model. Nature of the experiment: Rat SAH model, intrathecal treatment, myograph of basilar arteries. Type of experiment: in vivo. On the procedure: as §1, §2
If there was only one curve above the cut-off, the concentration-response curve to ET-1 was prioritized. Segments with the highest K^+ response were generally allocated to the concentration-response curve to ET-1. […] The Ca^2+ free buffer solution had similar composition as above, but 1.5 mM CaCl2 was exchanged with 0.03 mM EDTA.
Contractile responses of each segment were adjusted according to the length of the artery and are expressed as mN/mm (Nm^−1). […] To compare ET-1 sensitivity, arteries were normalized to the percentage of the individual vessel ET-1max. When the artery reached maximum contraction before the last concentration was added, the curves were constrained to the max contraction. The relative log IC50/log EC50 is the concentration corresponding to a response midway between the estimates of the lower and upper plateaus. The Emax is the maximal contraction in the concentration response curve and ET-1max is the maximal contraction to ET-1. All quantitative data is presented as mean±standard error of the mean (SEM), unless otherwise stated.
Rats were anesthetized and prepared for cisternal infusion of autologous blood, which simulates a SAH. Sham-operated rats went through the same procedure, omitting the intracisternal blood injection of 300 μL. At the end of the procedure, a PinPort (PNP3F22, Instech, US) was placed at the end of the ICP catheter to provide access for intrathecal (i.t.) injectable treatments by a PinPort injector (PNP-3M, Instech, US). 24 hours post-surgery, the rats received s.c. injections of Carprofen (Norodyl, 5 mg/kg) (Scanvet, Denmark) for analgesia.
The intrathecal (i.t.) treatment volumes were estimated for a cerebrospinal fluid (CSF) volume of approximately 90 μL (21) and the total dose was administered as three treatments (4 hours, 10 hours and 24 hours) through the PinPort in the ICP catheter placed in the cisterna magna during the surgical procedure. The first and third injections were given under fixation of the rat. […] Animals were given 2.5 ml isotonic saline s.c. to avoid dehydration, immediately after surgery and in conjunction with the 10 hours and 24 hours treatments.

Experiment [2] has the same test system. Nature of the experiment: Rat SAH model, intraperitoneal treatment, myograph of basilar arteries. Type of experiment: in vivo. As to conditions: SAH + i.p. treatment at 6 and 24 hours. The procedure:
as §1
The segments were equilibrated in physiological buffer aerated with 95% O2/5% CO2, pH of 7.4, temperature set at 37° C. and the wires were separated for isometric pretension at 2 Nm^−1. The arterial segments were exposed two or three times with 60 mM K^+, by exchanging the buffer with a 60 mM K^+ buffer solution. To maintain equal osmolarity, a proportional amount of Na^+ had been removed from the buffer. An absolute cut-off was set at 2.0 mN K^+max for inclusion of arterial segments from rats that underwent the surgical procedure. Endothelium function was evaluated with the addition of 5-HT (3.10^−7 M) followed by carbachol (10^−5 M). For arteries from the OC the protocol was as followed: first a cumulative concentration-response curve to sarafotoxin 6C (S6c, 10^−14-10^−7 M), followed by a concentration-response curve to endothelin-1 (ET-1, 10^−14-10^−7 M). […]

For the compound `CC(=O)Nc1cccc(-n2c(=O)n(C3CC3)c(=O)c3c(Nc4ccc(I)cc4F)n(C)c(=O)c(C)c32)c1` [trametinib], in the experiment with rat basilar arteries (48 h OC), the “Emax following NO donor sodium nitroprusside (SNP)” value is listed as “significant differences in the Emax” and the “response to CGRP” value is “No differences”. For the same compound, in the experiment with rat basilar arteries (48 h OC, precontracted with U46619 or K+), the “vasodilation in response to carbachol (10^-10-10^-5 M)” value is “improved vasodilation”. In the experiment with rat basilar arteries (48 h organ culture), the “endothelium function (10-5 M carbachol on arteries precontracted with 5-HT) vs DMSO” value is listed as “significant better endothelium function; also recorded: significant increase”. Besides, in experiment [1] (SAH + i.t. treatment), the “K+ responses compared to i.t. vehicle” value is given as “higher K^+ responses” and the “contraction at low ET-1 concentrations (10^-12.5-10^-11.0 M), ET-1max normalised, vs SAH+vehicle” value is “significantly reduced”. In addition, the “nimodipine insensitive ET-1max contraction” value in experiment [1] (SAH + i.t. treatment, Ca2+ curve, 10^-7 M nimodipine) was found to be 1.8±0.5 Nm^−1. For the same compound, the “contractile response of BAs to 60 mM K+” value in experiment [1] (SAH + i.t. treatment, all BAs incl. below cut-off) is 5.00±0.29 Nm^−1. The endothelium function result in experiment [1] (animals treated in vivo i.t. after SAH) was “No significant changes”. Moreover, in experiment [2], the “ET-1 contractility (at 10^-9.5 M) vs SAH+i.p. vehicle” value was “significant decrease in contractility” and the “contractile response of BAs to 60 mM K+” value is on record as 3.03±0.19 Nm-1.
